“Also recorded” adds a separate entry of the source. Where two headings read alike, the source gives them in different places.
Tested on: HeLa cells
Assay: MTT assay of HeLa cell viability (cytotoxic / anti-proliferative effect)
Type: cell-based
Conditions: for inhibition of HeLa cells: 50 μM; for effect on cell division: HeLa cells, 2.5 μM to 100 μM; for CC50: read-out: LC50 values against HeLa cells
Protocol: HeLa cells were cultured in DMEM (Dulbecco's Modified Eagle's Medium) containing 10% FBS, 2 mmol/L of glutamine, 100 U/mL penicillin, and […] of streptomycin at 37° C. under 5% CO2 condition. An appropriate amount of GypLXXV in DMSO (dimethyl sulfoxide) was taken according to a final concentration as described and added to the culture medium.
In vitro chemosensitivity was measured by MTT (dimethyl thiazolyl-2,5-diphenyltetrazolium bromide) assay (CellTiter 96® Non-Radioactive Cell Proliferation Assay kit. Promega), 100 μl of HeLa cells were dispensed at a density of 10^4 cells per well in a 96-well plate, and incubated for 24 hrs. To measure anti-proliferative effects of GypLXXV. Rg3(S). Rb1 and GypXVII, 2.5 μM to 100 μM of the compound was diluted with a FBS-free medium, and added to each well. Thereafter, the cells treated with the compound were incubated at 37° C. for 48 hrs, and MTT was added to each well, followed by further incubation for 4 hrs. After aspiration of the culture medium, formazan formed from MTT was dissolved in 100 μl of solubilization/stop solution. Thereafter, optical density of each well was measured at a wavelength of 595 nm using a microplate reader. Results were expressed as LC50 values analyzed using a GraphPad Prism 5 program.

Row | Compound | inhibition of HeLa cells (48 hrs) | effect on cell division | CC50 (MTT assay, 48 hrs incubation, 2.5 μM to 100 μM compound, FBS-free medium) | anti-cancer / anti-proliferative effect compared with the other compounds (FIG. 2) (HeLa cell viability, 48 hrs) | CC50 (Homo sapiens, HeLa, 48 h)
1 | CC(C)=CCC[C@](C)(O)[C@H]1CC[C@]2(C)[C@@H]1[C@H](O)C[C@@H]1[C@@]3(C)CC[C@H](O[C@@H]4O[C@H](CO)[C@@H](O)[C@H](O)[C@H]4O[C@@H]4O[C@H](CO)[C@@H](O)[C@H](O)[C@H]4O)C(C)(C)[C@@H]3CC[C@]12C [Rg3(S), 20(S)-ginsenoside-Rg3, reference compound] | almost all HeLa cells were inhibited | decreased cell division in a dose-dependent manner | 23.5 µM |  | 
2 | CC(C)=CCC[C@](C)(O[C@@H]1O[C@H](CO[C@@H]2O[C@H](CO)[C@@H](O)[C@H](O)[C@H]2O)[C@@H](O)[C@H](O)[C@H]1O)[C@H]1CC[C@]2(C)[C@@H]1[C@H](O)C[C@@H]1[C@@]3(C)CC[C@H](O)C(C)(C)[C@@H]3CC[C@]12C [GypLXXV, gypenoside LXXV] | almost all HeLa cells were inhibited | decreased cell division in a dose-dependent manner |  | anti-proliferative activity similar to that of Rg3(S); also recorded: higher anti-cancer effects than those of Rb1 or GypXVII | 29.9 µM
